According to ChEMBL document CHEMBL1208741, “Docking and SAR studies of salacinol derivatives as alpha-glucosidase inhibitors” (Bioorg Med Chem Lett, 2010):

Assay: Inhibition of alpha glucosidase

Row | SMILES | pIC50
1 | O=S(=O)([O-])O[C@@H](CO)CC[S@+]1C[C@@H](O)[C@H](O)[C@H]1CO | < 3
2 | O=S(=O)([O-])OCCC[S@+]1C[C@@H](O)[C@H](O)[C@H]1CO | < 3
3 | O=S(=O)([O-])O[C@H](CO)[C@@H](O)C[S@+]1C[C@@H](O)[C@H](O)[C@H]1CO | < 3
4 | [O-]C[C@@H](O)[C@@H](O)C[S@+]1C[C@@H](O)[C@H](O)[C@H]1CO | < 3
5 | [O-]CC[C@H](O)C[S@+]1C[C@@H](O)[C@H](O)[C@H]1CO | 3.94
6 | [O-][C@@H](CO)[C@H](O)C[S@+]1C[C@@H](O)[C@H](O)[C@H]1CO [NEOSALACINOL] | 5.1
7 | O=S(=O)([O-])O[C@@H](CO)[C@H](O)C[S@+]1C[C@@H](O)[C@H](O)[C@H]1CO [SALACINOL] | 5.28
8 | O=S(=O)([O-])OC[C@H](O)C[S@+]1C[C@@H](O)[C@H](O)[C@H]1CO [SALAPRINOL] | 3
